The source of these data is US3966930A, “Phenothiazine derivatives, compositions thereof and methods of preparation thereof” (Kefalas A/S, priority 1973, dated 1976).

This assay relates to methylphenidate. Briefly: Methylphenidate antagonism in mice (rapid screening test for neuroleptic drugs). Type of assay: in vivo, NMRI male mice. Particulars: Mus musculus, ip. The protocol:
40 grams of 4-(2-hydroxyethyl)piperidine were then added, and the mixture heated for 17 hours at 90° Centigrade. The mixture was cooled, poured into water, extracted with 500 milliliters of ether, the ether extract washed five times with water and dried over anhydrous magnesium sulphate. The oxalate of 2-trifluoromethyl-7-fluoro-10-(3'-(4-(2-hydroxyethyl)piperidin-1-yl)propyl)phenothiazine was precipitated from acetone-/ether (1:1) and melts at 76°-80° Centigrade. The pharmacological testing of the compounds of the present invention consisted of a standard and reliable, published test showing the neuroleptic activity of the compounds in that they antagonize central nervous stimulating compounds such as amphetamine and methylphenidate. […] 1971, 29, suppl. 4, 44.
The test may briefly be described as follows:
As animals were used NMRI male mice weighing 18-25 grams. 3 × 2 mice are used for each dose level.
2, 6 or 24 hours after i.p.injection of test substance, methylphenidate, 60 mg/kg, is injected s.c. After administration of methylphenidate the mice are placed in the observation cages, 2 in each cage, where they remain for 2, 6 or 24 hours. The cages are placed on corrugated paper, the corrugations facing upwards. It is examined whether or not the mice have been biting the corrugated paper. […] If one or more of the control pairs have also not been biting the corrugated paper, the test has to be repeated on a new set of mice. The following novel substances of Formula I were tested: […]
As reference substances were used the corresponding known phenothiazines having no fluorine substitution at position 7, namely fluphenazine, perphenazine, thioproperazine, acetophenazine and chlorpromazine respectively.

Where [1] appears, read: 2 h after i.p. injection of test substance, methylphenidate 60 mg/kg s.c., mice, read-out: Methylphenidate Antagonism ED50, 2h.
[2] abbreviates: 6 h after i.p. injection of test substance, methylphenidate 60 mg/kg s.c., mice, read-out: Methylphenidate Antagonism ED50, 6h.
Where [3] appears, read: 24 h after i.p. injection of test substance, methylphenidate 60 mg/kg s.c., mice, read-out: Methylphenidate Antagonism ED50, 24h.
Setting [4] is: 2 h, read-out: Methylphenidate Antagonism ED50, 2h.
Setting [5] is: 6 h, read-out: Methylphenidate Antagonism ED50, 6h.
The mark [6] stands for this setting: 24 h, read-out: Methylphenidate Antagonism ED50, 24h.

Read-outs that look alike come from different tables or passages of the source.

Consider `CC(=O)c1ccc2c(c1)N(CCCN1CCN(CCO)CC1)c1ccccc1S2` [Acetophenazine], for which the 50% effective dose (ED50) reads like this: under setting [1], 0.2 mg/kg; under setting [2], 4.4 mg/kg; under setting [3], greater than 10 mg/kg.
For `CN(C)CCCN1c2ccccc2Sc2ccc(Cl)cc21` [Chlorpromazine], the 50% effective dose (ED50) runs as follows: under setting [4], 3.3 mg/kg; under setting [5], greater than 20 mg/kg; under setting [6], greater than 20 mg/kg.
In the case of `OCCN1CCN(CCCN2c3ccccc3Sc3ccc(C(F)(F)F)cc32)CC1` [Fluphenazine], the median effective dose (ED50) was 0.08 mg/kg under setting [1], 0.03 mg/kg under setting [2] and greater than 2.5 mg/kg under setting [3].
For the molecule `OCCN1CCN(CCCN2c3ccc(F)cc3Sc3ccc(C(F)(F)F)cc32)CC1` [Lu 10-116, 2-trifluoromethyl-7-fluoro-10-(3'-(4-(2-hydroxyethyl)-piperazine-1-yl)propyl)phenothiazine], the ED50 runs as follows: under setting [1], 0.11 mg/kg; under setting [2], 0.01 mg/kg; under setting [3], 0.08 mg/kg.
Take `OCCN1CCN(CCCN2c3ccc(F)cc3Sc3ccc(Cl)cc32)CC1` [Lu 10-125, 2-chloro-7-fluoro-10-(3'-(4-(2-hydroxyethyl)-1-piperazinyl)propyl)-phenothiazine]: the ED50 was 0.06 mg/kg under setting [1], 0.05 mg/kg under setting [2] and greater than 5 mg/kg under setting [3].
On to `CN(C)CCCN1c2ccc(F)cc2Sc2ccc(Cl)cc21` [Lu 10-152, 2-chloro-7-fluoro-10-(3'-dimethylaminopropyl)-phenothiazine], for which the median effective dose (ED50) was 2 mg/kg under setting [1], 2.1 mg/kg under setting [2] and greater than 20 mg/kg under setting [3].
Turning to `CN1CCN(CCCN2c3ccc(F)cc3Sc3ccc(S(=O)(=O)N(C)C)cc32)CC1` [Lu 11-075, 2-dimethylsulfamoyl-7-fluoro-10-(3'-(4-methyl-piperazin-1-yl)-propyl)phenothiazine], the ED50 was 0.7 mg/kg under setting [1], 0.44 mg/kg under setting [2] and greater than 5 mg/kg under setting [3].
For `CC(=O)c1ccc2c(c1)N(CCCN1CCN(CCO)CC1)c1ccc(F)cc1S2` [Lu 11-087, 2-acetyl-7-fluoro-10-(3'-(4-(2-hydroxyethyl)-1-piperazinyl)-propyl)phenothiazine], the ED50 under setting [1] was determined as 0.06 mg/kg, the ED50 under setting [2] turned out to be 0.07 mg/kg and the ED50 under setting [3] was greater than 1.25 mg/kg.
With `OCCN1CCN(CCCN2c3ccccc3Sc3ccc(Cl)cc32)CC1` [Perphenazine], the median effective dose (ED50) reads like this: under setting [4], 0.08 mg/kg; under setting [5], 0.55 mg/kg; under setting [6], greater than 5 mg/kg.
In the case of `CN1CCN(CCCN2c3ccccc3Sc3ccc(S(=O)(=O)N(C)C)cc32)CC1` [Thioproperazine], the ED50 runs as follows: under setting [1], 0.28 mg/kg; under setting [2], 1.2 mg/kg; under setting [3], greater than 5 mg/kg.

For orientation: ED50 means the dose at which the effect has come halfway, by size or by number of responders.
